Data reported in US20240065271A1, “MIXTURES AND COMPOSITIONS COMPRISING FUSARICIDIN A, FUSARICIDIN B AND FUNGICIDES” (BASF SE, priority 2020, published 2024).

Tests used:
[1] = system: Botrytis cinerea; assay: Activity against grey mold Botrytis cinerea in the microtiterplate test (BOTRCI); type: cell-based; conditions: single active
[2] = system: Sclerotinia sclerotiorum; assay: Activity against Sclerotinia sclerotiorum in the microtiterplate test (SCLESC); type: cell-based; conditions: single active
[3] = system: Pyricularia oryzae; assay: microbe, parasite or virus in culture; type: cell-based; conditions: for Observed efficacy: single active
[4] = system: Staphylococcus aureus; conditions: clinically relevant fungi and gram-positive bacteria such a Staphylococcus aureus; cited from earlier work
[5] = system: Colletotrichum orbiculare; assay: Activity against Colletotrichum orbiculare in the microtiterplate test (COLLLA); type: cell-based; conditions: single active
[6] = Pyricularia oryzae, 168 h, read-out: Observed efficacy

CON=C(C(=O)OC)c1ccccc1CON=C(C)c1cccc(C(F)(F)F)c1 [Trifloxystrobin, trifloxystrobin]
Observed efficacy ([1]; 0.063 ppm): 0
Observed efficacy ([2]; 0.063 ppm): 41

fosetyl-aluminium
Observed efficacy ([3]; 4 ppm): 4

CCNC(=O)NC(=O)/C(C#N)=N/OC [Cymoxanil, cymoxanil]
inhibition of growth at 16 ppm [3, 6]: 3%
inhibition of growth at 63 ppm [3, 6]: 11%

metiram
Observed efficacy ([3]; 16 ppm): 17

CO/N=C(/C1=NOCCO1)c1ccccc1Oc1ncnc(Oc2ccccc2Cl)c1F [Fluoxastrobin, fluoxastrobin]
inhibition of growth at 0.016 ppm [3, 6]: 8%

C#CCOc1ccc(CCNC(=O)C(OCC#C)c2ccc(Cl)cc2)cc1OC (stereo not shown) [Mandipropamid, mandipropamid]
Observed efficacy ([1]; 63 ppm): 16
Observed efficacy ([2]; 63 ppm): 29
Observed efficacy ([3]; 16 ppm): 7

fusaricidin A
MIC value range [4]: 0.78 to 3.12 µg/mL

CCCCCCCCc1c(CC)nc2ncnn2c1N [Ametoctradin, ametoctradin]
Observed efficacy ([3]; 4 ppm): 12

CCCN(CC)CC1COC2(CCC(C(C)(C)C)CC2)O1 (stereo not shown) [Spiroxamin, spiroxamine]
inhibition of growth at 4 ppm [3, 6]: 3%
inhibition of growth at 16 ppm [3, 6]: 17%
Observed efficacy ([5]; 16 ppm): 8

O=C(NCc1ncc(C(F)(F)F)cc1Cl)c1c(Cl)cccc1Cl [Fluopicolid, fluopicolide]
Observed efficacy ([3]; 1 ppm): 2

mancozeb
Observed efficacy ([3]; 0.25 ppm): 5

Cc1cccc(-n2nnn(C)c2=O)c1COc1ccn(-c2ccc(Cl)cc2)n1 [Methyltetraprol, metyltetraprole]
Observed efficacy ([3]; 0.016 ppm): 16
Observed efficacy ([5]; 0.063 ppm): 19

CCC(C)(NC(=O)c1cc(Cl)c(C)c(Cl)c1)C(=O)CCl (stereo not shown) [Zoxamid, zoxamide]
Observed efficacy ([1]; 1 ppm): 11
Observed efficacy ([2]; 1 ppm): 0
inhibition of growth at 4 ppm [3, 6]: 39%
Observed efficacy ([5]; 1 ppm): 0

COc1cc(C)c(C(=O)c2c(OC)ccc(Br)c2C)c(OC)c1OC [Metrafenon, metrafenone]
inhibition of growth at 0.25 ppm [3, 6]: 3%

O=C(Nc1ccccc1-c1ccc(Cl)cc1)c1cccnc1Cl [Boscalid, boscalid]
inhibition of growth at 1 ppm [3, 6]: 5%

COC(=O)CC(NC(=O)[C@@H](NC(=O)OC(C)C)C(C)C)c1ccc(Cl)cc1 (stereo partly shown) [Valifenalat, valifenalate]
Observed efficacy ([3]; 4 ppm): 1

CC(C)[C@H](NC(=O)O)C(=O)N[C@H](C)c1nc2ccc(F)cc2s1 [Benthiavalicarb, benthiavalicarb]
Observed efficacy ([3]; 4 ppm): 0
Observed efficacy ([3]; 16 ppm): 8

Cc1ccc(-c2c(Cl)nc(C#N)n2S(=O)(=O)N(C)C)cc1 [Cyazofamid, cyazofamid]
inhibition of growth at 0.25 ppm [3, 6]: 6%
inhibition of growth at 1 ppm [3, 6]: 16%

N#Cc1sc2c(=O)c3ccccc3c(=O)c=2sc1C#N [Dithianon, dithianon]
Observed efficacy ([2]; 1 ppm): 57
Observed efficacy ([5]; 0.063 ppm): 0

Cc1c(Br)c2ccc(F)cc2n1S(=O)(=O)c1ncn(S(=O)(=O)N(C)C)n1 [Amisulbrom, amisulbrom]
Observed efficacy ([3]; 1 ppm): 3
Observed efficacy ([3]; 4 ppm): 11

Cc1ccc(C(C)NC(=O)[C@@H](NC(=O)OC(C)C)C(C)C)cc1 (stereo partly shown) [Iprovalicarb, iprovalicarb]
Observed efficacy ([3]; 1 ppm): 8
Observed efficacy ([3]; 4 ppm): 17

Cc1cc(C(F)(F)F)nn1CC(=O)N1CCC(c2nc(C3=NOC(c4c(F)cccc4F)C3)cs2)CC1 (stereo not shown) [Oxathiapiprolin, oxathiapiprolin]
Observed efficacy ([1]; 16 ppm): 11

O=[N+]([O-])c1cc(C(F)(F)F)c(Cl)c([N+](=O)[O-])c1Nc1ncc(C(F)(F)F)cc1Cl [Fluazinam, fluazinam]
inhibition of growth at 0.063 ppm [3, 6]: 8%

COc1cc(C)c(C(=O)c2c(OC)ncc(Cl)c2C)c(OC)c1OC [Pyriofenon, pyriofenone]
Observed efficacy ([1]; 16 ppm): 12
Observed efficacy ([3]; 4 ppm): 6
Observed efficacy ([3]; 16 ppm): 18
Observed efficacy ([5]; 16 ppm): 20

Cn1cc(C(=O)Nc2ccccc2-c2cc(F)c(F)c(F)c2)c(C(F)F)n1 [Fluxapyroxad, fluxapyroxad]
Observed efficacy ([3]; 0.016 ppm): 3
